Experiments:
Assay type in all cases: cell-based
hCXCR4-NLuc = target: T1, hCXCR4-NLuc (Homo sapiens, UniProt P61073); experiment: Bystander BRET detection of CXCR4 membrane localization; settings: 1 μM VUF16840
T1 construct: expressed in transfected cells; host or cells: HEK293T
Protocol: Ligand-induced receptor mobilization to the plasma membrane was monitored by bystander NanoBRET according to an established method.[36] For this assay, 5 × 10^6 HEK293T cells were seeded in 10-cm dishes and cotransfected with plasmids encoding ACKR3 C-terminally tagged with NLuc and mNeonGreen N-terminally tagged with the plasma membrane targeting sequence corresponding to the first 11 residues ([…]) of the human Lyn-kinase.[37] Twenty-four hours after transfection, cells were distributed into black 96-well plates (1 × 10^5 cells per well) and treated with chemokines (100 nM). After 45-minute incubation at 37 °C, coelenterazine H (10 μM) was added and donor emission (460 nm) and acceptor emission (535 nm) were immediately measured on a GloMax Discover (Promega) plate reader.
The resulting proximity between hACKR3-NLuc and was determined as bystander BRET. […] (B) The same assay was performed as in A for hCXCR4-NLuc. […] Expression of hACKR3-NLuc at the cell surface was determined by the measurement of bystander BRET. Depicted data represents the mean ± SD of 3 experiments with triplicate measurements per experiment.

[1] = system: panel of 19 human chemokine receptors; experiment: NanoBiT-complementation based chemokine receptor screen (agonist and antagonist mode)
Protocol: The pharmacological modulation of all chemokine receptors by VUF16840 was performed according to an established method.[8]^,[23]^,[39] Briefly, β-arrestin2 recruitment to chemokine receptors in response to 1 μM VUF16840 or positive control chemokines was monitored by NanoLuc complementation assay (NanoBiT, Promega). Four hours after transfection, cells were harvested, incubated for 25 minutes at 37 °C with furimazine and distributed into a white 96-well plates (1 × 10^5 cells per well). β-Arrestin2 recruitment was then detected for 20 minutes upon treatment with 1 μM VUF16840 (or increasing concentrations ligand for experiments with CC chemokine receptor [CCR3]) using the Mithras LB940 luminometer (Berthold Technologies). To evaluate the antagonist properties of VUF16840, full agonists of each receptor were added after the 20-minute incubation with VUF16840. Signal from wells treated with full agonist only was defined as 100% activity and signals from wells treated with no agonist were used to set 0% activity. […]
Fig. 4 Modulation of a panel of chemokine receptors by VUF16840. β-Arrestin2 recruitment toward a full panel of 19 chemokine receptor was measured using a NLuc complementation assay in HEK293T cells. […]

CCR3 = CCR3 (Homo sapiens, UniProt P51677); experiment: NanoBiT β-arrestin2 recruitment to CCR3, concentration-response
Protocol: The pharmacological modulation of all chemokine receptors by VUF16840 was performed according to an established method.[8]^,[23]^,[39] Briefly, β-arrestin2 recruitment to chemokine receptors in response to 1 μM VUF16840 or positive control chemokines was monitored by NanoLuc complementation assay (NanoBiT, Promega). Four hours after transfection, cells were harvested, incubated for 25 minutes at 37 °C with furimazine and distributed into a white 96-well plates (1 × 10^5 cells per well). β-Arrestin2 recruitment was then detected for 20 minutes upon treatment with 1 μM VUF16840 (or increasing concentrations ligand for experiments with CC chemokine receptor [CCR3]) using the Mithras LB940 luminometer (Berthold Technologies). To evaluate the antagonist properties of VUF16840, full agonists of each receptor were added after the 20-minute incubation with VUF16840. Signal from wells treated with full agonist only was defined as 100% activity and signals from wells treated with no agonist were used to set 0% activity.
Supplemental Figure 5 – Modulation of CCR3 receptor by VUF16840. Recruitment of β-arrestin2 towards CCR3 chemokine receptor was measured using a NLuc complementation assay in HEK293T cells. The concentration-dependent activation of the CCR3 was determined for VUF16840 and the endogenous agonist CCL13. All values depict the mean ± SD of ≥ 3 experiments.

hACKR3-NLuc = target: T2, hACKR3-NLuc (Homo sapiens, UniProt P25106); experiment: Bystander BRET detection of ACKR3 membrane localization; settings: 1 μM VUF16840
T2 construct: expressed in transfected cells; host or cells: HEK293T
T2 sequence (P25106 whole entry): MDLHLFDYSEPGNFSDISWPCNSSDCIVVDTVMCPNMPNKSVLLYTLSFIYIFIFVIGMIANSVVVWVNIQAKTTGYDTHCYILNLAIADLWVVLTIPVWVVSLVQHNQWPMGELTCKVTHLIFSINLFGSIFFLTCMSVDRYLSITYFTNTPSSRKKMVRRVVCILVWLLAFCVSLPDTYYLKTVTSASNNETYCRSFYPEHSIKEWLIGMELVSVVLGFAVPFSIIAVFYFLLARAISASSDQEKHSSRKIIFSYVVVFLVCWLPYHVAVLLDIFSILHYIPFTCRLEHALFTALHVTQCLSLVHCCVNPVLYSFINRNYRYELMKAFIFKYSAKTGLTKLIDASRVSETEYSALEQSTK
Protocol: Ligand-induced receptor mobilization to the plasma membrane was monitored by bystander NanoBRET according to an established method.[36] For this assay, 5 × 10^6 HEK293T cells were seeded in 10-cm dishes and cotransfected with plasmids encoding ACKR3 C-terminally tagged with NLuc and mNeonGreen N-terminally tagged with the plasma membrane targeting sequence corresponding to the first 11 residues ([sequence]) of the human Lyn-kinase.[37] Twenty-four hours after transfection, cells were distributed into black 96-well plates (1 × 10^5 cells per well) and treated with chemokines (100 nM). After 45-minute incubation at 37 °C, coelenterazine H (10 μM) was added and donor emission (460 nm) and acceptor emission (535 nm) were immediately measured on a GloMax Discover (Promega) plate reader.
Similarly, to determine the concentration-dependent effects of ligand-induced ACKR3 mobilization to the cell membrane, cells were transfected with membrane-targeted mVenus (mVenus-CAAX) and ACKR3-NL (vide supra). […] Cells were subsequently incubated at 37 °C for 20 minutes after which the total light intensity was measured at 475 and 535 nm (both with a bandwidth of 30 nm) using the PHERAstar-FSX with a dual emission filter. […]
The resulting proximity between hACKR3-NLuc and was determined as bystander BRET. […] Expression of hACKR3-NLuc at the cell surface was determined by the measurement of bystander BRET. […]

CCR3, sequence (P51677 whole entry): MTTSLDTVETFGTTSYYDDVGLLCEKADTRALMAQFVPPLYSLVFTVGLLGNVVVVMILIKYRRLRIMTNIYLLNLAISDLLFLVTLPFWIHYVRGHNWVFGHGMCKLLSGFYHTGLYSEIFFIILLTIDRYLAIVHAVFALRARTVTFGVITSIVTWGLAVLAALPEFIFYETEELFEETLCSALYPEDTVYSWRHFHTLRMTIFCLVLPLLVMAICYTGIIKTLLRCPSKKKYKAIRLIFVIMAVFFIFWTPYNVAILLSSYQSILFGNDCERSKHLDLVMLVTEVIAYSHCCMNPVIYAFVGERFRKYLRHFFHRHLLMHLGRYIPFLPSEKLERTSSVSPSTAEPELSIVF
CCR3, sequence (P32121 whole entry partner): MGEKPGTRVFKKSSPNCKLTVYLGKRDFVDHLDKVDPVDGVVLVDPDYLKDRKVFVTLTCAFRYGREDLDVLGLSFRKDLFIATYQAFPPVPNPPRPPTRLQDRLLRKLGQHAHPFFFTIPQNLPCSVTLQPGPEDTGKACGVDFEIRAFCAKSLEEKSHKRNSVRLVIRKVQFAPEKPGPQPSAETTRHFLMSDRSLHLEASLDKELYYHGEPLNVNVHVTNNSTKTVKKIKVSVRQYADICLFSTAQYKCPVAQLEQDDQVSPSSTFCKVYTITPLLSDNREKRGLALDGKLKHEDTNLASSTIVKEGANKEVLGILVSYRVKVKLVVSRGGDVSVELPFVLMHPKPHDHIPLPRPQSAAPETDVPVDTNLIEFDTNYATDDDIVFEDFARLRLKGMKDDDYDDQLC
T1 sequence (P61073 whole entry): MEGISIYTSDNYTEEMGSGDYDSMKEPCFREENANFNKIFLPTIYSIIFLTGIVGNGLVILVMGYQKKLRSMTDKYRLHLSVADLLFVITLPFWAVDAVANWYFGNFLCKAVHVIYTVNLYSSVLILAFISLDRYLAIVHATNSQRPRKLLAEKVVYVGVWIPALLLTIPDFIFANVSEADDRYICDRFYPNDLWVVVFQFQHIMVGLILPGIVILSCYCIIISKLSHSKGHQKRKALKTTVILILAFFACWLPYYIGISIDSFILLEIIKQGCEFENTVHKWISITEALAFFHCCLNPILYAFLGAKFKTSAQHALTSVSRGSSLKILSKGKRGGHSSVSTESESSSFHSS

## COc1ccccc1CCNC(=O)C1CN(C2CCCCC2)CCC1NC(=O)c1cc(-c2ccc(F)cc2F)on1 (stereo not drawn) [VUF16840]
hCXCR4-NLuc
  effect on CXCR4 surface expression (bystander BRET): not affected
[1]; 1 μM VUF16840
  agonist mode screen, modulation of β-arrestin2 recruitment: only modulated β-arrestin2 recruitment to hACKR3 and hCCR3
[1]; 1 μM VUF16840 coincubated with respective endogenous agonist
  antagonist-mode inhibition of any tested chemokine receptor: ≤ 50%
CCR3; HEK293T, NanoBiT, read-out: EC50, activation of CCR3 (β-arrestin2 recruitment)
  EC50: 200 nM
CCR3; β-arrestin2 recruitment
  efficacy at CCR3 relative to endogenous agonist CCL13: 1.4 fold
hACKR3-NLuc
  effect on bystander BRET signal hACKR3-NLuc / membrane-targeted mNeonGreen (cell surface localization): increased the bystander BRET signals
